Measured values: patent EP0567324A1, “Medicaments for treating gar-transformylase-dependent tumors” (ELI LILLY AND COMPANY, priority 1992, dated 1993)

Columns and labels:
[1] = tested on: adenocarcinoma originating in the ethmoid sinus; conditions: human, in vivo
[2] = tested on: aggressive soft tissue sarcoma characterized as either a malignant Schwannoma or a tendosynovial sarcoma; conditions: human, in vivo

With `Nc1nc2c(c(=O)[nH]1)C[C@@H](CCc1ccc(C(=O)N[C@@H](CCC(=O)O)C(=O)O)cc1)CN2` [Lometrexol, 5,10-dideaza-5,6,7,8-tet-rahydrofolic acid] the “change of massively enlarged liver (hepatic metastases) after treatment” value [1] was “marked shrinkage”, the “duration of prolonged thrombocytopenia and anemia” value [1] was “over 7 weeks” and the “persistent anemia at a Hgb of” value [1] was 5.4. The “clinical response in the irradiated field” value [2] was “dramatic”, the “lometrexol retention in the patients body” value [2] was “prolonged” and the “mucositis due to the drug” value [2] was “mild mucositis”. The “thrombocytopenia to” value [2] was 55,000 and the “tumor course after lometrexol, before radiation” value [2] was “continued to rapidly progress”.
